Laboratory results taken from ChEMBL document CHEMBL3526109 (Drug Metab Dispos, 2011).
One block for each compound: values may come before it.

How the values were obtained:
Settings in all cases: in vivo
Plasma [1] = assay: Drug level in cynomolgus monkey plasma assessed as compound formation treated with [14C]brivanib alaninate at 10 mg/kg, po administered as single dose via gavage measured after 12 hrs by mass spectrometry; assay type: ADME, organism-based, Macaca fascicularis
Plasma [2] = assay: Drug level in human plasma assessed as compound formation treated with [14C]brivanib alaninate at 800 mg, po administered as single dose via gavage measured after 1 hr by mass spectrometry; assay type: ADME, organism-based
Plasma [3] = assay: Drug level in human plasma assessed as compound formation treated with [14C]brivanib alaninate at 800 mg, po administered as single dose via gavage measured after 2 hrs by mass spectrometry; assay type: ADME, organism-based
Plasma [4] = assay: Drug level in human plasma assessed as compound formation treated with [14C]brivanib alaninate at 800 mg, po administered as single dose via gavage measured after 4 hrs by mass spectrometry; assay type: ADME, organism-based
Plasma [5] = assay: Drug level in human plasma assessed as compound formation treated with [14C]brivanib alaninate at 800 mg, po administered as single dose via gavage measured after 8 hrs by mass spectrometry; assay type: ADME, organism-based
Plasma [6] = assay: Drug level in human plasma assessed as compound formation treated with [14C]brivanib alaninate at 800 mg, po administered as single dose via gavage measured after 12 hrs by mass spectrometry; assay type: ADME, organism-based
[7] = Drug level in bile duct-cannulated rat bile treated with [14C]brivanib alaninate at 100 mg/kg, po administered as single dose via gavage by mass spectrometry; assay type: ADME, organism-based
[8] = Drug level in bile duct-cannulated cynomolgus monkey bile treated with [14C]brivanib alaninate at 10 mg/kg, po administered as single dose via gavage by mass spectrometry; assay type: ADME, organism-based, Macaca fascicularis
[9] = Drug excretion in Sprague-Dawley rat urine treated with [14C]brivanib alaninate at 100 mg/kg, po administered as single dose via gavage by HPLC analysis; assay type: ADME, organism-based
[10] = Drug excretion in Sprague-Dawley rat feces treated with [14C]brivanib alaninate at 100 mg/kg, po administered as single dose via gavage by HPLC analysis; assay type: ADME, organism-based
[11] = Drug excretion in cynomolgus monkey urine treated with [14C]brivanib alaninate at 10 mg/kg, po administered as single dose via gavage by HPLC analysis; assay type: ADME, organism-based, Macaca fascicularis
[12] = Drug excretion in cynomolgus monkey feces treated with [14C]brivanib alaninate at 10 mg/kg, po administered as single dose via gavage by HPLC analysis; assay type: ADME, organism-based, Macaca fascicularis
[13] = Drug excretion in human urine treated with [14C]brivanib alaninate at 800 mg, po administered as single dose […] by HPLC analysis; assay type: ADME, organism-based
[14] = Drug excretion in human feces treated with [14C]brivanib alaninate at 800 mg, po administered as single dose […] by HPLC analysis; assay type: ADME, organism-based
Plasma [15] = assay: Drug level in Sprague-Dawley rat plasma assessed as compound formation treated with [14C]brivanib alaninate at 100 mg/kg, po administered as single dose via gavage measured after 1 hr by mass spectrometry; assay type: ADME, organism-based
Plasma [16] = assay: Drug level in Sprague-Dawley rat plasma assessed as compound formation treated with [14C]brivanib alaninate at 100 mg/kg, po administered as single dose via gavage measured after 2 hrs by mass spectrometry; assay type: ADME, organism-based
Plasma [17] = assay: Drug level in Sprague-Dawley rat plasma assessed as compound formation treated with [14C]brivanib alaninate at 100 mg/kg, po administered as single dose via gavage measured after 6 hrs by mass spectrometry; assay type: ADME, organism-based
Plasma [18] = assay: Drug level in cynomolgus monkey plasma assessed as compound formation treated with [14C]brivanib alaninate at 10 mg/kg, po administered as single dose via gavage measured after 1 hr by mass spectrometry; assay type: ADME, organism-based, Macaca fascicularis
Plasma [19] = assay: Drug level in cynomolgus monkey plasma assessed as compound formation treated with [14C]brivanib alaninate at 10 mg/kg, po administered as single dose via gavage measured after 2 hrs by mass spectrometry; assay type: ADME, organism-based, Macaca fascicularis
Plasma [20] = assay: Drug level in cynomolgus monkey plasma assessed as compound formation treated with [14C]brivanib alaninate at 10 mg/kg, po administered as single dose via gavage measured after 4 hrs by mass spectrometry; assay type: ADME, organism-based, Macaca fascicularis
Plasma [21] = assay: Drug level in cynomolgus monkey plasma assessed as compound formation treated with [14C]brivanib alaninate at 10 mg/kg, po administered as single dose via gavage measured after 6 hrs by mass spectrometry; assay type: ADME, organism-based, Macaca fascicularis
Rattus norvegicus [22] = assay: AUC (0 to 6 hrs) as total radioactivity in Sprague-Dawley rat plasma at 100 mg/kg, po administered as single oral dose by HPLC analysis; assay type: ADME, organism-based
Cynomolgus monkey [23] = assay: AUC (0 to 12 hrs) as total radioactivity in cynomolgus monkey plasma at 10 mg/kg, po administered as single oral dose by HPLC analysis; assay type: ADME, organism-based, Macaca fascicularis
Homo sapiens [24] = assay: AUC (0 to 12 hrs) as total radioactivity in human plasma at 800 mg, po administered as single oral dose by HPLC analysis; assay type: ADME, organism-based
[25] = Drug recovery in Sprague-Dawley rat urine at 100 mg/kg, po administered as single dose via gavage measured during 0 to 168 hrs by liquid scintillation counting; assay type: ADME, organism-based
[26] = Drug recovery in Sprague-Dawley rat feces at 100 mg/kg, po administered as single dose via gavage measured during 0 to 168 hrs by liquid scintillation counting; assay type: ADME, organism-based
Rattus norvegicus [27] = assay: Total drug recovery in Sprague-Dawley rat at 100 mg/kg, po administered as single dose via gavage measured during 0 to 168 hrs by liquid scintillation counting; assay type: ADME, organism-based
[28] = Drug recovery in bile duct-cannulated rat urine at 100 mg/kg, po administered as single dose via gavage measured during 0 to 48 hrs by liquid scintillation counting; assay type: ADME, organism-based
[29] = Drug recovery in bile duct-cannulated rat bile at 100 mg/kg, po administered as single dose via gavage measured during 0 to 48 hrs by liquid scintillation counting; assay type: ADME, organism-based
[30] = Drug recovery in bile duct-cannulated rat feces at 100 mg/kg, po administered as single dose via gavage measured during 0 to 48 hrs by liquid scintillation counting; assay type: ADME, organism-based
Rattus norvegicus [31] = assay: Total drug recovery in bile duct-cannulated rat at 100 mg/kg, po administered as single dose via gavage measured during 0 to 48 hrs by liquid scintillation counting; assay type: ADME, organism-based
[32] = Drug recovery in cynomolgus monkey urine at 10 mg/kg, po administered as single dose via gavage measured during 0 to 168 hrs by liquid scintillation counting; assay type: ADME, organism-based, Macaca fascicularis
[33] = Drug recovery in cynomolgus monkey feces at 10 mg/kg, po administered as single dose via gavage measured during 0 to 168 hrs by liquid scintillation counting; assay type: ADME, organism-based, Macaca fascicularis
Cynomolgus monkey [34] = assay: Total drug recovery in cynomolgus monkey at 10 mg/kg, po administered as single dose via gavage measured during 0 to 168 hrs by liquid scintillation counting; assay type: ADME, organism-based, Macaca fascicularis
[35] = Drug recovery in bile duct-cannulated cynomolgus monkey urine at 10 mg/kg, po administered as single dose via gavage measured during 0 to 72 hrs by liquid scintillation counting; assay type: ADME, organism-based, Macaca fascicularis
Cynomolgus monkey [36] = assay: Cmax as total radioactivity in cynomolgus monkey plasma treated at 10 mg/kg, po administered as single dose via gavage by liquid scintillation counting; assay type: ADME, organism-based, Macaca fascicularis
Cynomolgus monkey [37] = assay: Tmax of total radioactivity in cynomolgus monkey plasma treated at 10 mg/kg, po administered as single dose via gavage by liquid scintillation counting; assay type: ADME, organism-based, Macaca fascicularis
Cynomolgus monkey [38] = assay: AUC (0 to t) as total radioactivity in cynomolgus monkey plasma treated at 10 mg/kg, po administered as single dose via gavage by liquid scintillation counting; assay type: ADME, organism-based, Macaca fascicularis
Homo sapiens [39] = assay: Cmax as total radioactivity in human plasma treated at 800 mg, po administered as single dose […] by mass spectrometry; assay type: ADME, organism-based
Homo sapiens [40] = assay: Tmax of total radioactivity in human plasma treated at 800 mg, po administered as single dose […] by mass spectrometry; assay type: ADME, organism-based
Homo sapiens [41] = assay: AUC (0 to t) as total radioactivity in human plasma treated at 800 mg, po administered as single dose […] by mass spectrometry; assay type: ADME, organism-based
[42] = Drug recovery in bile duct-cannulated cynomolgus monkey bile at 10 mg/kg, po administered as single dose via gavage measured during 0 to 72 hrs by liquid scintillation counting; assay type: ADME, organism-based, Macaca fascicularis
[43] = Drug recovery in bile duct-cannulated cynomolgus monkey feces at 10 mg/kg, po administered as single dose via gavage measured during 0 to 72 hrs by liquid scintillation counting; assay type: ADME, organism-based, Macaca fascicularis
Cynomolgus monkey [44] = assay: Total drug recovery in bile duct-cannulated cynomolgus monkey at 10 mg/kg, po administered as single dose via gavage measured during 0 to 72 hrs by liquid scintillation counting; assay type: ADME, organism-based, Macaca fascicularis
[45] = Drug recovery in human urine at 800 mg, po administered as single dose via gavage measured during 0 to 288 hrs by liquid scintillation counting; assay type: ADME, organism-based
[46] = Drug recovery in human feces at 800 mg, po administered as single dose via gavage measured during 0 to 288 hrs by liquid scintillation counting; assay type: ADME, organism-based
Homo sapiens [47] = assay: Total drug recovery in human at 800 mg, po administered as single dose […] measured during 0 to 288 hrs by liquid scintillation counting; assay type: ADME, organism-based
Rattus norvegicus [48] = assay: Cmax as total radioactivity in Sprague-Dawley rat plasma treated at 100 mg/kg, po administered as single dose via gavage by liquid scintillation counting; assay type: ADME, organism-based
Rattus norvegicus [49] = assay: Tmax of total radioactivity in Sprague-Dawley rat plasma treated at 100 mg/kg, po administered as single dose via gavage by liquid scintillation counting; assay type: ADME, organism-based
Rattus norvegicus [50] = assay: AUC (0 to t) as total radioactivity in Sprague-Dawley rat plasma treated at 100 mg/kg, po administered as single dose via gavage by liquid scintillation counting; assay type: ADME, organism-based

Compound recovery (Plasma [1]): metabolite_detected
Compound recovery (Plasma [2]): metabolite_detected
Compound recovery (Plasma [3]): metabolite_detected
Compound recovery (Plasma [4]): metabolite_detected
Compound recovery (Plasma [5]): metabolite_detected
Compound recovery (Plasma [6]): metabolite_detected
Compound recovery [7]: metabolite_detected
Compound recovery [8]: metabolite_detected
Compound recovery [9]: metabolite_not_detected
Compound recovery [10]: metabolite_not_detected
Compound recovery [11]: metabolite_not_detected
Compound recovery [12]: metabolite_not_detected
Compound recovery [13]: metabolite_not_detected
Compound recovery [14]: metabolite_not_detected
Compound recovery (Plasma [15]): metabolite_detected
Compound recovery (Plasma [16]): metabolite_detected
Compound recovery (Plasma [17]): metabolite_detected
Compound recovery (Plasma [18]): metabolite_detected
Compound recovery (Plasma [19]): metabolite_detected
Compound recovery (Plasma [20]): metabolite_detected
Compound recovery (Plasma [21]): metabolite_detected
Compound: CC(=O)COc1cn2ncnc(Oc3ccc4[nH]c(C)cc4c3F)c2c1C

AUC (Rattus norvegicus [22]): 139766 ugequiv/l.hr
AUC (Cynomolgus monkey [23]): 69315 ugequiv/l.hr
AUC (Homo sapiens [24]): 65627.4 ugequiv/l.hr
Radiolabel recovery [25]: 9.46%
Radiolabel recovery [26]: 83.58%
Radiolabel recovery (Rattus norvegicus [27]): 93.68%
Radiolabel recovery [28]: 7.33%
Radiolabel recovery [29]: 78.35%
Radiolabel recovery [30]: 3.31%
Radiolabel recovery (Rattus norvegicus [31]): 88.99%
Radiolabel recovery [32]: 10.3%
Radiolabel recovery [33]: 76.31%
Radiolabel recovery (Cynomolgus monkey [34]): 89.79%
Radiolabel recovery [35]: 3.56%
Cmax (Cynomolgus monkey [36]): 9700 ng/mL
Tmax (Cynomolgus monkey [37]): 2 h
AUCt (Cynomolgus monkey [38]): 90.3 µg·h/mL
Cmax (Homo sapiens [39]): 9400 ng/mL
Tmax (Homo sapiens [40]): 1 h
AUCt (Homo sapiens [41]): 203.8 µg·h/mL
Radiolabel recovery [42]: 47.66%
Radiolabel recovery [43]: 26.41%
Radiolabel recovery (Cynomolgus monkey [44]): 81.43%
Radiolabel recovery [45]: 12.18%
Radiolabel recovery [46]: 81.54%
Radiolabel recovery (Homo sapiens [47]): 93.72%
Cmax (Rattus norvegicus [48]): 35200 ng/mL
Tmax (Rattus norvegicus [49]): 2 h
AUCt (Rattus norvegicus [50]): 250 µg·h/mL
Compound: Cc1cc2c(F)c(Oc3n[14cH]nn4cc(OC[C@@H](C)OC(=O)[C@H](C)N)c(C)c34)ccc2[nH]1
